{"source": "ChEMBL document CHEMBL3885861", "about": "“Open TG-GATES”", "species_on_record": "Rattus norvegicus", "assay": "Open TG-GATES - Regimen: Daily Repeat", "format": "toxicity, organism-based, Sprague-Dawley", "design": "regimen Daily Repeat, gender Male, age 6 weeks", "details": "in vivo, po, 100 mg/kg, route gavage, dose level Middle; for APTT / Bas / Eos / Fbg / Hb / Ht / Lym / MCH / MCHC / MCV / Mono / Neu / PT / Plat / RBC / Ret / WBC: tissue Blood", "key": {"[1]": {"details": "72 h, tissue Kidney, time 3 day"}, "[2]": {"details": "72 h, tissue Plasma, time 3 day"}}, "data": [{"smiles": "ClC(Cl)(Cl)Cl", "note": "[CARBON TETRACHLORIDE]", "values": [{"measurement": "TERMINAL_BW", "setting": "72 h, time 3 day", "result": 216.4, "unit": "g"}, {"measurement": "APTT", "setting": "72 h, time 3 day", "result": 20.1, "unit": "s"}, {"measurement": "Bas", "setting": "72 h, time 3 day", "result": 0, "unit": "%"}, {"measurement": "Eos", "setting": "72 h, time 3 day", "result": 1, "unit": "%"}, {"measurement": "Fbg", "setting": "72 h, time 3 day", "result": 220, "unit": "mg/dL"}, {"measurement": "Hb", "setting": "72 h, time 3 day", "result": 13.9, "unit": "g/dL"}, {"measurement": "Ht", "setting": "72 h, time 3 day", "result": 40.9, "unit": "%"}, {"measurement": "Lym", "setting": "72 h, time 3 day", "result": 75, "unit": "%"}, {"measurement": "MCH", "setting": "72 h, time 3 day", "result": 21.3, "unit": "pg"}, {"measurement": "MCHC", "setting": "72 h, time 3 day", "result": 34, "unit": "%"}, {"measurement": "MCV", "setting": "72 h, time 3 day", "result": 62.6, "unit": "fL"}, {"measurement": "Mono", "setting": "72 h, time 3 day", "result": 3.4, "unit": "%"}, {"measurement": "Neu", "setting": "72 h, time 3 day", "result": 19.6, "unit": "%"}, {"measurement": "PT", "setting": "72 h, time 3 day", "result": 12.6, "unit": "s"}, {"measurement": "Plat", "setting": "72 h, time 3 day", "result": 123.3, "unit": "x10_4/uL"}, {"measurement": "RBC", "setting": "72 h, time 3 day", "result": 653.4, "unit": "x10_4/ul"}, {"measurement": "Ret", "setting": "72 h, time 3 day", "result": 5.6, "unit": "%"}, {"measurement": "WBC", "setting": "72 h, time 3 day", "result": 95, "unit": "x10_2/uL"}, {"measurement": "KIDNEY_L", "setting": "[1]", "result": 0.9, "unit": "g"}, {"measurement": "KIDNEY_R", "setting": "[1]", "result": 0.9, "unit": "g"}, {"measurement": "KIDNEY_TOTAL", "setting": "[1]", "result": 1.8, "unit": "g"}, {"measurement": "LIVER", "setting": "72 h, tissue Liver, time 3 day", "result": 10.9, "unit": "g"}, {"measurement": "A/G", "setting": "[2]", "result": 1.5}, {"measurement": "ALP", "setting": "[2]", "result": 1153, "unit": "IU/L"}, {"measurement": "ALT", "setting": "[2]", "result": 68.6, "unit": "IU/L"}, {"measurement": "AST", "setting": "[2]", "result": 164.4, "unit": "IU/L"}, {"measurement": "BUN", "setting": "[2]", "result": 13, "unit": "mg/dL"}, {"measurement": "CRE", "setting": "[2]", "result": 0.4, "unit": "mg/dL"}, {"measurement": "Ca", "setting": "[2]", "result": 10.9, "unit": "mg/dL"}, {"measurement": "Cl", "setting": "[2]", "result": 103.4, "unit": "meq/L"}, {"measurement": "DBIL", "setting": "[2]", "result": 0.066, "unit": "mg/dL"}, {"measurement": "GLC", "setting": "[2]", "result": 184.4, "unit": "mg/dL"}, {"measurement": "IP", "setting": "[2]", "result": 7.3, "unit": "mg/dL"}, {"measurement": "K", "setting": "[2]", "result": 4, "unit": "meq/L"}, {"measurement": "LDH", "setting": "[2]", "result": 279.4, "unit": "IU/L"}, {"measurement": "Na", "setting": "[2]", "result": 140, "unit": "meq/L"}, {"measurement": "PL", "setting": "[2]", "result": 132.2, "unit": "mg/dL"}, {"measurement": "RALB", "setting": "[2]", "result": 3.2, "unit": "g/dL"}, {"measurement": "TBIL", "setting": "[2]", "result": 0.1, "unit": "mg/dL"}, {"measurement": "TC", "setting": "[2]", "result": 61.6, "unit": "mg/dL"}, {"measurement": "TG", "setting": "[2]", "result": 30, "unit": "mg/dL"}, {"measurement": "TP", "setting": "[2]", "result": 5.4, "unit": "g/dL"}, {"measurement": "gamma-GTP", "setting": "[2]", "result": 1.4, "unit": "IU/L"}, {"measurement": "TERMINAL_BW", "setting": "[…], time 7 day", "result": 247.4, "unit": "g"}, {"measurement": "TERMINAL_BW", "setting": "[…], time 14 day", "result": 301.8, "unit": "g"}, {"measurement": "TERMINAL_BW", "setting": "[…], time 28 day", "result": 377.7, "unit": "g"}, {"measurement": "APTT", "setting": "[…], time 7 day", "result": 19.9, "unit": "s"}, {"measurement": "Bas", "setting": "[…], time 7 day", "result": 0, "unit": "%"}, {"measurement": "Eos", "setting": "[…], time 7 day", "result": 1, "unit": "%"}, {"measurement": "Fbg", "setting": "[…], time 7 day", "result": 229.6, "unit": "mg/dL"}, {"measurement": "Hb", "setting": "[…], time 7 day", "result": 13.9, "unit": "g/dL"}, {"measurement": "Ht", "setting": "[…], time 7 day", "result": 40.5, "unit": "%"}, {"measurement": "Lym", "setting": "[…], time 7 day", "result": 83.4, "unit": "%"}, {"measurement": "MCH", "setting": "[…], time 7 day", "result": 21.7, "unit": "pg"}, {"measurement": "MCHC", "setting": "[…], time 7 day", "result": 34.4, "unit": "%"}, {"measurement": "MCV", "setting": "[…], time 7 day", "result": 63, "unit": "fL"}, {"measurement": "Mono", "setting": "[…], time 7 day", "result": 3, "unit": "%"}, {"measurement": "Neu", "setting": "[…], time 7 day", "result": 12.8, "unit": "%"}, {"measurement": "PT", "setting": "[…], time 7 day", "result": 12.1, "unit": "s"}, {"measurement": "Plat", "setting": "[…], time 7 day", "result": 112.3, "unit": "x10_4/uL"}, {"measurement": "RBC", "setting": "[…], time 7 day", "result": 642.2, "unit": "x10_4/ul"}, {"measurement": "Ret", "setting": "[…], time 7 day", "result": 5.8, "unit": "%"}, {"measurement": "WBC", "setting": "[…], time 7 day", "result": 127.1, "unit": "x10_2/uL"}, {"measurement": "APTT", "setting": "[…], time 14 day", "result": 22.1, "unit": "s"}, {"measurement": "Bas", "setting": "[…], time 14 day", "result": 0, "unit": "%"}, {"measurement": "Eos", "setting": "[…], time 14 day", "result": 0.8, "unit": "%"}, {"measurement": "Fbg", "setting": "[…], time 14 day", "result": 217.4, "unit": "mg/dL"}, {"measurement": "Hb", "setting": "[…], time 14 day", "result": 14, "unit": "g/dL"}, {"measurement": "Ht", "setting": "[…], time 14 day", "result": 41.6, "unit": "%"}, {"measurement": "Lym", "setting": "[…], time 14 day", "result": 80.2, "unit": "%"}, {"measurement": "MCH", "setting": "[…], time 14 day", "result": 20.1, "unit": "pg"}, {"measurement": "MCHC", "setting": "[…], time 14 day", "result": 33.6, "unit": "%"}, {"measurement": "MCV", "setting": "[…], time 14 day", "result": 59.6, "unit": "fL"}, {"measurement": "Mono", "setting": "[…], time 14 day", "result": 3.2, "unit": "%"}, {"measurement": "Neu", "setting": "[…], time 14 day", "result": 16, "unit": "%"}, {"measurement": "PT", "setting": "[…], time 14 day", "result": 12.2, "unit": "s"}, {"measurement": "Plat", "setting": "[…], time 14 day", "result": 113, "unit": "x10_4/uL"}, {"measurement": "RBC", "setting": "[…], time 14 day", "result": 699, "unit": "x10_4/ul"}, {"measurement": "Ret", "setting": "[…], time 14 day", "result": 4, "unit": "%"}, {"measurement": "WBC", "setting": "[…], time 14 day", "result": 110.8, "unit": "x10_2/uL"}, {"measurement": "APTT", "setting": "[…], time 28 day", "result": 20.8, "unit": "s"}, {"measurement": "Bas", "setting": "[…], time 28 day", "result": 0, "unit": "%"}, {"measurement": "Eos", "setting": "[…], time 28 day", "result": 0.6, "unit": "%"}, {"measurement": "Fbg", "setting": "[…], time 28 day", "result": 209.4, "unit": "mg/dL"}, {"measurement": "Hb", "setting": "[…], time 28 day", "result": 14.7, "unit": "g/dL"}, {"measurement": "Ht", "setting": "[…], time 28 day", "result": 42.8, "unit": "%"}]}]}
